Structures can show the parent of a compound that is named as a salt. Where two headings read alike, the source gives them in different places.
How the values were obtained:
[1] = biological target: T1, Recombinant Human ENPP-1 Protein (purified in-house) (Homo sapiens (Human), UniProt P22413); experiment: ENPP1 Assay (TMP), Example 2; type: biochemical
Protocol: Enzyme: 1 ng/μL Recombinant Human ENPP-1 Protein (purified in-house)—Assay Conc.: 5 ng/well of DMSO in 96-well clear assay plates.
(§1) A ten point serial dilution of drugs was prepared in 10× in assay buffer with the final assay concentrations starting at 10 μM, 3 μM, 1 μM, 0.3 μM . . . 0 μM. A dilution of DMSO was included as a control. The assay plate was set up as follows with each well in duplicate: 75 μL assay buffer+10 μL ENPP1 inhibitor or DMSO Dilutions+10 μL Substrate+5 μL Enzyme (5 ng). Both the enzyme and substrate were added to opposite sides of the well to ensure that there was no interaction until all wells had both components. The plate was then centrifuged gently for 10 seconds, followed by an incubation at 37° C. for 45 minutes. The reaction was quantified by measuring absorbance at 405 nm using the Envision Plate Reader.

Saos-2 Cells = experiment: ENPP1 Mineralization Assay; type: cell-based
Protocol: Saos-2 Cells (ATCC CAT #HTB-85). Culture Medium. 24-well Tissue Culture Plate. Ascorbic Acid, 5 mg/mL (100×). β-Glycerophosphate, 1M (100×). Phosphate Buffered Saline. Alizarin Red, 40 mM pH 4.2. 70% Ethanol. Dye Extraction Reagent, 10% Methanol+10% Acetic Acid
Saos-2 cells were plated at a density of 1.5×10^6 cells/well and allowed to grow to 100% confluency over the following 1-2 days. Once completely confluent, the media was replaced with fresh media supplemented with 1× ascorbic acid, 1× β-glycerophosphate, and varying concentrations of ENPP1 inhibitor (if applicable). The addition of the mineralization components was considered Day 1. On Day 3, the media was gently aspirated with no wash followed by the addition of fresh media, mineralization components, and ENPP1 inhibitor (if applicable). On day 5, the media was gently aspirated and the cells were washed twice with PBS. The cells were then fixed with ice cold 70% ethanol for 1 hour at 4° C. Cells were washed once with PBS and stained with Alizarin Red for 30 minutes at room temperature with gentle rotation. Stained cells were washed three times with water for 10 minutes at room temperature with gentle rotation. After imaging cells, dye extraction reagent was added to each well and incubated for 30 minutes at room temperature. Alizarin red was quantified by measuring absorbance at a wavelength of 405 nm using the Envision.
FIG. 9 depicts a picture of results of a similar SAOS-2 mineralization assay. SAOS-2 cell were cultured in the presence and absence of ENPP1 inhibitor (compound 78, 107-02 or 108) and exposed to mineralization components for 3 days.

ENPP1 protein [2] = biological target: T2, ENPP1 protein (Homo sapiens (Human), UniProt P22413); experiment: ENPP1 Inhibition Assay (thymidine 5′-monophosphate p-nitrophenol ester substrate); type: biochemical
Protocol: Assay Buffer: 1 mM CaCl2, 0.2 mM ZnCl2, 50 mM Tris, pH 9.0. Substrate: 8 mM Thymidine 5′-monophosphate p-nitrophenol ester sodium salt (Sigma Cat #T4510). Enzyme: 5 ng/L Recombinant Human ENPP-1 Protein (R&D Cat #6136-EN-010) in DMSO in 96-well clear assay plates
as §1, with “An eight” for “A ten”, “81” for “75”, “DMSO+5” for “DMSO Dilutions+10”, “Substrate+4” for “Substrate+5”, “Enzyme.” for “Enzyme (5 ng).”, “Envision.” for “Envision Plate Reader.”
IC50 values are determined using GraphPad Prism 5 software. The data were entered as an X-Y plot into the software as percent inhibition for each concentration of the drug. The concentration values of the drug were log transformed and the nonlinear regression was carried out using the “sigmoidal dose-response (variable slope)” option within the GraphPad software to model the data and calculate IC50 values. The IC50 values reported are the concentration of drug at which 50% inhibition was reached.

[3] = biological target: T1, Recombinant Human ENPP-1 Protein (purified in-house); experiment: ENPP1 Assay (ATP), Example 2; type: biochemical
Protocol: Assay Buffer: 1 mM CaCl2, 0.2 mM ZnCl2, 50 mM Tris, pH 9.0. Substrate: 100 μM Adenosine 5′-triphosphate disodium salt hydrate (Promega: V703A)—Assay Conc.: 10 μM. Enzyme: 1 ng/μL Recombinant Human ENPP-1 Protein (purified in-house)—Assay Conc.: 5 ng/well of DMSO in 96-well white assay plates. Cell Titer Glo (Promega, cat #G7572).
as §1, with “by” for “by an”, “RT” for “37° C.”, “20 minutes. To detect levels of ATP, Cell Titer Glo was added 1:1 to each well and incubated for 10” for “45”, “luminescence” for “absorbance at 405 nm”

ENPP1 protein [4] = biological target: T2, ENPP1 protein; experiment: ENPP1 Thermal Shift Assay (Example 1); type: binding
Protocol: Assay Buffer (1 mM CaCl2, 0.2 mM ZnCl2, 50 mM Tris, pH 9.0) 5000×SYPRO Orange (ThermoFisher cat #S6651) 384-well PCR Plates
Each drug was prepared as a 10× solution in the assay buffer and SYPRO Orange was diluted to 10× concentration in water. Wells were set up in duplicate in a 384-well PCR plate as follows: 14 μL assay buffer, 2 μL ENPP1 Inhibitor or DMSO, 2 μL (0.5 μg) ENPP1 protein. Each well was mixed and incubated on ice for 5 minutes. Post incubation, 2 μL of SYPRO Orange was mixed into each well and followed by a gentle centrifugation. The protein melt reaction was run using ViiA7 software with temperatures beginning at 25° C. and increasing by 0.05° C./s to the maximum temperature of 99° C.
In a 384-well plate, 1.0 μg of ENPP1 protein incubated with 100 μM of the corresponding drug for 5 minutes. Each well exposed to increasing temperatures to determine an unfolding temperature of the protein.

[5] = Table 5, TMP substrate, read-out: ENPP1 (IC50 μM) TMP
[6] = FIG. 5B, ATP substrate, read-out: IC50
[7] = FIG. 5A, TMP substrate, read-out: IC50
[8] = Table 5, ATP substrate, read-out: ENPP1 (IC50 μM) ATP

T1 sequence (P22413 whole entry, looked up): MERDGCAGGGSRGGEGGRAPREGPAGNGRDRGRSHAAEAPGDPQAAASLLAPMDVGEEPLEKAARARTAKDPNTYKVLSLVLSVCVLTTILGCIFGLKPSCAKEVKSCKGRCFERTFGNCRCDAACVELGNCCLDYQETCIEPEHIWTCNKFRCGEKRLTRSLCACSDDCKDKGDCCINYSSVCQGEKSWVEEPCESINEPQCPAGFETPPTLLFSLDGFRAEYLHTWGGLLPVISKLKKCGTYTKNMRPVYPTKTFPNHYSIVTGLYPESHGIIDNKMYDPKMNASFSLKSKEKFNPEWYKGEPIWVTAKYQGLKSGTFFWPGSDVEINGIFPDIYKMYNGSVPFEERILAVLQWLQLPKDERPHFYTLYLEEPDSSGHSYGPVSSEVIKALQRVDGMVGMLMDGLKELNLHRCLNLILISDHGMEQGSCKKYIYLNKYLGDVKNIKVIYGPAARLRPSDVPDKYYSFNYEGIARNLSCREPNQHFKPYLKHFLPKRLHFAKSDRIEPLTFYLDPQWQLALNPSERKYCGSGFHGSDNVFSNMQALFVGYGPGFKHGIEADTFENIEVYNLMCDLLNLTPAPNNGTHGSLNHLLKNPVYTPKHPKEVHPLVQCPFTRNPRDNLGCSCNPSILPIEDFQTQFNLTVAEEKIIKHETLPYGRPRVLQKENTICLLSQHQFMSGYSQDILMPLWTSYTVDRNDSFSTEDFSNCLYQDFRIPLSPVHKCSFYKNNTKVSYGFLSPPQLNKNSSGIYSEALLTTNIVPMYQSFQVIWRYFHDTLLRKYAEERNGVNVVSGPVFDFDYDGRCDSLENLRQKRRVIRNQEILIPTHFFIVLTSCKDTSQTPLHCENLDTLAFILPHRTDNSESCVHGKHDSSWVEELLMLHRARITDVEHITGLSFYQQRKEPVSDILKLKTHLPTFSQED
T2 sequence (P22413 whole entry, looked up, change not shown): as the sequence (P22413 whole entry, looked up) above

Structure (SMILES)	IC50 [1, 5] [µM]	IC50 [3, 8] [µM]	other results
COc1nc(NC(=O)CSc2nc3c(C)c(C#N)ncc3[nH]2)ccc1O [Compound 96, 2-((6-cyano-7-methyl-3H-imidazo[4,5-c]pyridin-2-yl)thio)-N-(5-hydroxy-6-methoxypyridin-2-yl)acetamide]	> 50		
COc1ccc(NC(=O)CSc2nc3cc(C#N)ncc3[nH]2)cc1OC [Compound 68, 2-((6-Cyano-3H-imidazo[4,5-c]pyridin-2-yl)thio)-N-(3,4-dimethoxyphenyl)acetamide]			inhibiting ENPP1 ability to produce mineralized nodules (Saos-2 Cells; FIG. 4, normalized against DMSO control): effective; inhibiting the activity of ENPP1 (ENPP1 protein [2]; FIG. 1): effective; IC50 (ENPP1 protein [2]; Table 1, FIG. 1, read-out: IC50): 0.114 µM
COc1ccc(NC(=O)CSc2nc3c(C)c(C#N)ncc3[nH]2)cc1OP(=O)(O)O [Compound 107, Sodium 5-(2-((6-cyano-7-methyl-3H-imidazo[4,5-c]pyridin-2-yl)thio)acetamido)-2-methoxyphenyl phosphate]			IC50 [3, 6]: 0.116 µM; IC50 ([3]; Table 5, ATP substrate, phosphate, read-out: ENPP1 (IC50 μM) ATP): 0.116 µM; IC50 [1, 7]: 0.232 µM; IC50 ([1]; Table 5, TMP substrate, phosphate, read-out: ENPP1 (IC50 μM) TMP): 0.231 µM
COc1ccc(NC(=O)CSc2nc3c(C)c(C#N)ncc3[nH]2)cc1O[C@H]1CC[C@H](N)CC1 [Compound 113, N-(3-(((1r,4r)-4-aminocyclohexyl)oxy)-4-methoxyphenyl)-2-((6-cyano-7-methyl-3H-imidazo[4,5-c]pyridin-2-yl)thio)acetamide Hydrochloride]	22.2		
COc1ccc(NC(=O)CSc2nc3c(C)c(C#N)ncc3[nH]2)cc1OCC1CCN(C)CC1 [Compound 111, 2-((6-cyano-7-methyl-3H-imidazo[4,5-c]pyridin-2-yl)thio)-N-(4-methoxy-3-((1-methylpiperidin-4-yl)methoxy)phenyl)acetamide hydrochloride]	22.3		
COc1ccc(NC(=O)CSc2nc3c(C)c(C#N)ncc3[nH]2)cc1N1CCC(O)CC1 [Compound 112, 2-((6-cyano-7-methyl-3H-imidazo[4,5-c]pyridin-2-yl)thio)-N-(3-(4-hydroxypiperidin-1-yl)-4-methoxyphenyl)acetamide hydrochloride]	> 50	> 50	
Cc1c(C#N)ncc2[nH]c(SCC(=O)Nc3ccc(F)c(S(N)(=O)=O)c3)nc12 [Compound 104, 2-((6-cyano-7-methyl-3H-imidazo[4,5-c]pyridin-2-yl)thio)-N-(4-fluoro-3-sulfamoylphenyl)acetamide]	2.85		
COc1cc(NC(=O)CSc2nc3c(C)c(C#N)ncc3[nH]2)ccc1OP(=O)([O-])[O-].[Na+].[Na+] [Compound 108, sodium 4-(2-((6-Cyano-7-methyl-3H-imidazo[4,5-c]pyridin-2-yl)thio)acetamido)-2-methoxyphenyl phosphate]	2.04	0.339	Tm (° C.) (ENPP1 protein [4]; Table 2, FIG. 7, 100 μM drug, 1.0 μg ENPP1, NT 60.05): 63.60 °C; ΔTm at 100 µM (ENPP1 protein [4]; read-out: ΔTm (° C.)): 3.54 °C; total mineralization (Saos-2 Cells; FIG. 9, mineralization components for 3 days): significant decrease; IC50 [3, 6]: 0.339 µM; IC50 [1, 7]: 2.04 µM
COc1ccc(NC(=O)CSc2nc3c(C)c(C#N)ncc3[nH]2)cc1N[C@H]1CC[C@H](N)CC1 [Compound 114, N-(3-(((1r,4r)-4-aminocyclohexyl)amino)-4-methoxyphenyl)-2-((6-cyano-7-methyl-3H-imidazo[4,5-c]pyridin-2-yl)thio)acetamide hydrogen chloride]	> 50	> 50	
COc1ccc(NC(=O)CSc2nc3c(C)c(C#N)ncc3[nH]2)cc1S(C)(=O)=O [Compound 103, 2-((6-cyano-7-methyl-3H-imidazo[4,5-c]pyridin-2-yl)thio)-N-(4-methoxy-3-(methylsulfonyl)phenyl)acetamide]	> 50		
COc1ccc(NC(=O)c2cnc(CSc3nc4c(C)c(C#N)ncc4[nH]3)s2)cc1O [Compound 115, sodium 5-(2-(((6-cyano-7-methyl-3H-imidazo[4,5-c]pyridin-2-yl)thio)methyl)thiazole-5-carboxamido)-2-methoxyphenolate]	1.61	0.196	IC50 [3, 6]: 0.191 µM; IC50 [1, 7]: 1.61 µM
COc1ccc(NC(=O)CSc2nc3c(C)c(C#N)ncc3[nH]2)cc1OCCO [Compound 109, 2-((6-cyano-7-methyl-3H-imidazo[4,5-c]pyridin-2-yl)thio)-N-(3-(2-hydroxyethoxy)-4-methoxyphenyl)acetamide]	3.61	3.26	
Cc1c(C#N)ncc2[nH]c(SCC(=O)Nc3ccc(F)c(OCCO)c3)nc12 [Compound 110, 2-((6-cyano-7-methyl-3H-imidazo[4,5-c]pyridin-2-yl)thio)-N-(4-fluoro-3-(2-hydroxyethoxy)phenyl)acetamide]	> 50		
O=C(CSc1nc2cc(Cl)ncc2[nH]1)Nc1ccc2c(c1)OCO2 [Compound 7, N-(benzo[d][1,3]dioxol-5-yl)-2-((6-chloro-1H-imidazo[4,5-c]pyridin-2-yl)thio)acetamide]			IC50 (ENPP1 protein [2]; Tables 3 and 4, read-out: ENPP1 inhibition (IC50)): > 50 µM

Reference: patent publication US11142524B2, “Substituted-3H-imidazo[4,5-c]pyridine and 1H-pyrrolo[2,3-c]pyridine series of novel Ectonucleotide Pyrophosphatase/Phosphodiesterase-1 (ENPP1) and stimulator for interferon genes (STING) modulators as cancer immunotherapeutics” (Stingray Therapeutics, Inc., priority 2018, dated 2021)
